Measurements taken from patent US7189751B2, “Oxa(thia)zolidine compounds, process for preparation thereof and anti-inflammatory agents” (Nippon Soda Co., Ltd., priority 2001, dated 2007).

Biological target: T1, IV-cPLA(2) in activated U937 cells (Homo sapiens, UniProt P47712)
T1 sequence (P47712 1-749): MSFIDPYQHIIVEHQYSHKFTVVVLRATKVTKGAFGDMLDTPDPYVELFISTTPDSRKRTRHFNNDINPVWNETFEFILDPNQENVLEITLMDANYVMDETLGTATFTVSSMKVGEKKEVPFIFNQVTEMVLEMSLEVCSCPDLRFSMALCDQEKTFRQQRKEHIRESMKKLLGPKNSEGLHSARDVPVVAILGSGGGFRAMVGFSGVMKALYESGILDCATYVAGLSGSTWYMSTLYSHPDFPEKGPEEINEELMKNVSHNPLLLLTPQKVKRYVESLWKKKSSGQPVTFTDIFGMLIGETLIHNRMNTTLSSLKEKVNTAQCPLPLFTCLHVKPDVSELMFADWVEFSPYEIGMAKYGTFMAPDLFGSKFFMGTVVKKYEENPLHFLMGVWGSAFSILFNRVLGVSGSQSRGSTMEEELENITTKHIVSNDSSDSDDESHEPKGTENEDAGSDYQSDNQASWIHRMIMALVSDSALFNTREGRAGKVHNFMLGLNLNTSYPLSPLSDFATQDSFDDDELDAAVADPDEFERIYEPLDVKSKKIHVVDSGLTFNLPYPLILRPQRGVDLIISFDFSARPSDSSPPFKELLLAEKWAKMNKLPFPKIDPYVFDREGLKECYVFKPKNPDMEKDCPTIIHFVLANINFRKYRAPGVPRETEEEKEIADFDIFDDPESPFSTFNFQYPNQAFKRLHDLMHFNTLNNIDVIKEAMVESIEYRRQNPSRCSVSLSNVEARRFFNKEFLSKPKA
Assay: PLA(2) activity: hydrolysis of bis-BODIPY FL C11-PC in TPA/A23187-activated U937 cells
Assay type: cell-based
Conditions: U-937; Concentration 10 μM; inflammatory activated PLA(2) activity, U937 cells
Protocol: The PLA(2) activity was measured by quantitatively analyzing the fluorescent product of hydrolysis from 1,2-bis-(4,4-difluoro-5,7-dimethyl-4-bora-3a,4a-diaza-s-indecene-3-undecanoyl)-sn-glycero-3-phosphocholine (hereinafter referred to bis-BODIPY®FL C11-PC, Molecular probes, Inc., B-7701) using activated U937 cells (human monoblastic lymphoma cell line) by inflammatory stimulus (Meshulam, T. et al., The journal of Biological Chemistry 267 (30): 21465–21470 (1992); and Solito, E. et al., British Journal of Pharmacology 124: 1675–1683(1998).). The substrate bis-BODIPY®FL C11-PC is incorporated into cellular membranes, the proximity of the BODIPY®FL fluorophores on adjacent phospholipid acyl chains causes fluorescence self-quenching. Separation of the fluorophores upon hydrolytic cleavage of one of the acyl chains by PLA(1) or the PLA(2) results in increased fluorescence. […]
The test compound was dissolved with DMSO at 30 mM, and the solution diluted with either DMSO or the Assay medium before addition into the reaction mixture. […] The increased fluorescence of the hydrolysis product by the enzyme was determined by measuring the fluorescence emission intensity at 535 nm with excitation at 485 nm from the top side of each plate at 37° C., using a Multi Functional Microplate Reader SPECTRA FLUOR PLUS (TECAN Austria GmbH). […]

With `CCOC(=O)C(=C1N[C@@H](C)[C@H](c2ccc(Cl)cc2)S1)[N+](=O)[O-]` (relative stereo) [Compound 2-29, Trans-5-(4-chlorophenyl)-4-methyl-2-(1-ethoxycarbonyl-1-nitromethylene)-thiazolidine] the inhibition at 10 µM was 99%.
